# Laboratory results taken from US8173638B2 (Boehringer Ingelheim International GmbH, priority 2006, dated 2012).
# Biological target: T1, human CB2R (Homo sapiens, UniProt P34972)
# T1 construct: host or cells: CHO cells
# Assay: CB2R mediated modulation of cAMP synthesis
# Type: cell-based
# Settings: 0.5 h; CHO cells expressing human CB2R; cAMP inhibited by 1 uM CP55940 defined as 100%; read-out: Agonist Efficacy (%)
# Protocol: B. CB2R Mediated Modulation of cAMP Synthesis:
# CHO cells expressing human CB2R (Euroscreen) were plated at a density of 5000 cells per well in 384 well plates and incubated overnight at 37° C. After removing the media, the cells were treated with test compounds diluted in stimulation buffer containing 1 mM IBMX, 0.25% BSA and 10 uM Forskolin. The assay was incubated for 30 minutes at 37° C. Cells were lysed and the cAMP concentration was measured using DiscoverX-XS cAMP kit, following the manufacturer's protocol. In this setting, agonists will decrease forskolin induced production of cAMP while inverse agonists will further increase forskolin induced production of cAMP. EC50 of agonists were calculated as follows. The maximal amount of cAMP produced by forskolin compared to the level of cAMP inhibited by 1 uM CP55940 is defined as 100%. […] Data was analyzed using a four-parameter logistic model. (Model 205 of XLfit 4.0).
# T1 sequence (P34972 whole entry): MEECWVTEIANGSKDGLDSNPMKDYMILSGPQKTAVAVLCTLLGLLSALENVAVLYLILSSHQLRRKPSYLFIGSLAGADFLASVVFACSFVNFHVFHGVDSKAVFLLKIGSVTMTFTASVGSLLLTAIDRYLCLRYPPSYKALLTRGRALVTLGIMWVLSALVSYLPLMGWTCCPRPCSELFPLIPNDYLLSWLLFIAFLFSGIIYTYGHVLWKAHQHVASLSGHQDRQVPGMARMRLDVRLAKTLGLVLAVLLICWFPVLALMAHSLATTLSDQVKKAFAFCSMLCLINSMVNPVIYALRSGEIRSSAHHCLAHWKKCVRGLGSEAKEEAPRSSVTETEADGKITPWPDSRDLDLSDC
row,Structure (SMILES),Emax
1,CCCCc1ccc(NC(=O)N2CCCN(C(=O)CC3CCCC3)CC2)cc1 [Example 11],65%
2,"O=C(CC1CCCC1)N1CCCN(C(=O)Nc2ccc(SC(F)(F)F)cc2)CC1 [Compound 82, 4-(2-cyclopentyl-acetyl)-[1,4]diazepane-1-carboxylic acid (4-trifluoromethylsulfanyl-phenyl)-amide]",92%
3,"CC(C)(C)c1ccc(NC(=O)N2CCCN(C(=O)CC3CCCCC3)CC2)cc1 [Compound 107, 4-(2-Cyclohexyl-acetyl)-[1,4]diazepane-1-carboxylic acid (4-tert-butyl-phenyl)-amide]",94%
4,"O=C(Nc1nc(-c2ccccc2)cs1)N1CCCN(C(=O)c2ccc(Cl)cc2)CC1 [Compound 167, 4-(4-Chloro-benzoyl)-[1,4]diazepane-1-carboxylic acid (4-phenyl-thiazol-2-yl)-amide]",102%
5,"CC(C)(C)c1ccc(NC(=O)N2CCCN(C(=O)c3ccc(Cl)c(Cl)c3)CC2)cc1 [Compound 110, 4-(3,4-Dichloro-benzoyl)-[1,4]diazepane-1-carboxylic acid (4-tert-butyl-phenyl)-amide]",97%
6,"O=C(Nc1ccc2ccccc2c1)N1CCCN(C(=O)c2ccc(Cl)c(Cl)c2)CC1 [Compound 86, 4-(3,4-Dichloro-benzoyl)-[1,4]diazepane-1-carboxylic acid naphthalen-2-ylamide]",92%

# Same assay, conditions: found through the use of the described assays (CB2 agonists); qualitative statement
row,Structure (SMILES),agonistic activity
1,"O=C(Nc1ccc(C(F)(F)F)cc1)N1CCCN(C(=O)C2CCOCC2)CC1 [4-(Tetrahydro-pyran-4-carbonyl)-[1,4]diazepane-1-carboxylic acid (4-trifluoromethyl-phenyl)-amide]",agonistic activity
2,"COc1ccc(C(=O)N2CCCN(C(=O)Nc3ccc4ccccc4c3)CC2)cc1 [4-(4-Methoxy-benzoyl)-[1,4]diazepane-1-carboxylic acid naphthalen-2-ylamide]",agonistic activity
3,"O=C(CCC1CCCC1)N1CCCN(C(=O)Nc2ccc3ccccc3c2)CC1 [4-(3-Cyclopentyl-propionyl)-[1,4]diazepane-1-carboxylic acid naphthalen-2-ylamide]",agonistic activity
4,"CC(C)c1ccc(NC(=O)N2CCCN(C(=O)CCC3CCCCC3)CC2)cc1 [4-(3-Cyclohexyl-propionyl)-[1,4]diazepane-1-carboxylic acid (4-isopropyl-phenyl)-amide]",agonistic activity
5,"O=C(Nc1cc(Cl)cc(Cl)c1)N1CCCN(C(=O)C2CCCCC2)CC1 [4-Cyclohexanecarbonyl-[1,4]diazepane-1-carboxylic acid (3,5-dichloro-phenyl)-amide]",agonistic activity
6,"CC(C)c1ccc(NC(=O)N2CCCN(C(=O)CCC3CC3)CC2)cc1 [4-(3-Cyclopropyl-propionyl)-[1,4]diazepane-1-carboxylic acid (4-isopropyl-phenyl)-amide]",agonistic activity
7,"O=C(Nc1nc(-c2ccccc2)cs1)N1CCCN(C(=O)C2CCC(O)CC2)CC1 (stereo not drawn) [4-(4-Hydroxy-cyclohexanecarbonyl)-[1,4]diazepane-1-carboxylic acid (4-phenyl-thiazol-2-yl)-amide]",agonistic activity
8,"CCc1ccc(NC(=O)N2CCCN(C(=O)CC3CCCCC3)CC2)cc1 [4-(2-Cyclohexyl-acetyl)-[1,4]diazepane-1-carboxylic acid (4-ethyl-phenyl)-amide]",agonistic activity
9,"O=C(Nc1nc2c(s1)CCCC2)N1CCCN(C(=O)c2ccc(Cl)cc2)CC1 [4-(4-Chloro-benzoyl)-[1,4]diazepane-1-carboxylic acid (4,5,6,7-tetrahydro-benzothiazol-2-yl)-amide]",agonistic activity
10,"CC(C)c1ccc(NC(=O)N2CCCN(C(=O)c3cccc(Cl)c3)CC2)cc1 [4-(3-Chloro-benzoyl)-[1,4]diazepane-1-carboxylic acid (4-isopropyl-phenyl)-amide]",agonistic activity
11,CCCCc1ccc(NC(=O)N2CCCN(C(=O)CC3CCCC3)CC2)cc1,agonistic activity
12,"O=C(Nc1ccc2ccccc2c1)N1CCCN(C(=O)C2CCCCC2)CC1 [4-Cyclohexanecarbonyl-[1,4]diazepane-1-carboxylic acid naphthalen-2-ylamide]",agonistic activity
13,"CCC(C)c1cc(NC(=O)N2CCCN(C(=O)C3CCOCC3)CC2)n(C)n1 (stereo not drawn) [4-(Tetrahydro-pyran-4-carbonyl)-[1,4]diazepane-1-carboxylic acid (5-sec-butyl-2-methyl-2H-pyrazol-3-yl)-amide]",agonistic activity
14,"CC(C)(C)c1cc(NC(=O)N2CCCN(C(=O)N3CCCCC3)CC2)no1 [4-(Piperidine-1-carbonyl)-[1,4]diazepane-1-carboxylic acid (5-tert-butyl-isoxazol-3-yl)-amide]",agonistic activity
15,"CC(C)(C)c1cc(NC(=O)N2CCCN(C(=O)N3CCN(S(C)(=O)=O)CC3)CC2)no1 [4-(4-Methanesulfonyl-piperazine-1-carbonyl)-[1,4]diazepane-1-carboxylic acid (5-tert-butyl-isoxazol-3-yl)-amide]",agonistic activity
16,"O=C(CCC1CCCCC1)N1CCCN(C(=O)Nc2ccc3ccccc3c2)CC1 [4-(3-Cyclohexyl-propionyl)-[1,4]diazepane-1-carboxylic acid naphthalen-2-ylamide]",agonistic activity
17,"O=C(CC1CCCCC1)N1CCCN(C(=O)Nc2ccc3ccccc3c2)CC1 [4-(2-Cyclohexyl-acetyl)-[1,4]diazepane-1-carboxylic acid (2-naphthyl)-amide]",agonistic activity
18,"CC(C)(C)c1cc(NC(=O)N2CCCN(C(=O)N3CCC(S(C)(=O)=O)CC3)CC2)no1 [4-(4-Methanesulfonyl-piperidine-1-carbonyl)-[1,4]diazepane-1-carboxylic acid (5-tert-butyl-isoxazol-3-yl)-amide]",agonistic activity
19,"CC(C)(C)c1ccc(NC(=O)N2CCCN(C(=O)CN3CCSCC3)CC2)cc1 [4-(2-Thiomorpholin-4-yl-acetyl)-[1,4]diazepane-1-carboxylic acid (4-tert-butyl-phenyl)-amide]",agonistic activity
20,"CC(C)(C)c1ccc(NC(=O)N2CCCN(C(=O)CC3CCCC3)CC2)cc1 [4-(2-Cyclopentyl-acetyl)-[1,4]diazepane-1-carboxylic acid (4-tert-butyl-phenyl)-amide]",agonistic activity
21,"CCC(C)c1ccc(NC(=O)N2CCCN(C(=O)N3CCS(=O)(=O)CC3)CC2)cc1 (stereo not drawn) [4-(1,1-Dioxo-1λ^6-thiomorpholine-4-carbonyl)-[1,4]diazepane-1-carboxylic acid (4-sec-butyl-phenyl)-amide]",agonistic activity
22,"CCCCc1ccc(NC(=O)N2CCCN(C(=O)CCC3CCCCC3)CC2)cc1 [4-(3-Cyclohexyl-propionyl)-[1,4]diazepane-1-carboxylic acid (4-butyl-phenyl)-amide]",agonistic activity
23,"CC(C)(C)c1cc(NC(=O)N2CCCN(C(=O)C3CCCCO3)CC2)no1 (stereo not drawn) [4-(Tetrahydro-pyran-2-carbonyl)-[1,4]diazepane-1-carboxylic acid (5-tert-butyl-isoxazol-3-yl)-amide]",agonistic activity
24,"CC(C)(C)c1cc(NC(=O)N2CCCN(C(=O)N3CCC(F)(F)CC3)CC2)no1 [4-(4,4-Difluoro-piperidine-1-carbonyl)-[1,4]diazepane-1-carboxylic acid (5-tert-butyl-isoxazol-3-yl)-amide]",agonistic activity
25,"CC(C)(C)c1cc(NC(=O)N2CCCN(C(=O)C3CCCNC3)CC2)no1 (stereo not drawn) [4-(Piperidine-3-carbonyl)-[1,4]diazepane-1-carboxylic acid (5-tert-butyl-isoxazol-3-yl)-amide]",agonistic activity
26,"C[C@@H]1CN(CC(=O)N2CCCN(C(=O)Nc3cc(C(C)(C)C)on3)CC2)C[C@H](C)O1 [4-[2-((2R,6S)-2,6-Dimethyl-morpholin-4-yl)-acetyl]-[1,4]diazepane-1-carboxylic acid (5-tert-butyl-isoxazol-3-yl)-amide]",agonistic activity
27,"COC1CCC(C(=O)N2CCCN(C(=O)Nc3cc(C(C)(C)C)on3)CC2)CC1 (stereo not drawn) [4-(4-Methoxy-cyclohexanecarbonyl)-[1,4]diazepane-1-carboxylic acid (5-tert-butyl-isoxazol-3-yl)-amide]",agonistic activity
28,"CC(C)(C)c1cc(NC(=O)N2CCCN(C(=O)C3CCNCC3)CC2)no1 [4-(Piperidine-4-carbonyl)-[1,4]diazepane-1-carboxylic acid (5-tert-butyl-isoxazol-3-yl)-amide]",agonistic activity
29,"CC(C)c1cnc(NC(=O)N2CCCN(C(=O)N3CCS(=O)(=O)CC3)CC2)s1 [4-(1,1-Dioxo-1λ^6-thiomorpholine-4-carbonyl)-[1,4]diazepane-1-carboxylic acid (5-isopropyl-thiazol-2-yl)-amide]",agonistic activity
30,"CC(C)(C)c1cc(NC(=O)N2CCCN(C(=O)C3CCOCC3)CC2)[nH]n1 [4-(Tetrahydro-pyran-4-carbonyl)-[1,4]diazepane-1-carboxylic acid (5-tert-butyl-2H-pyrazol-3-yl)-amide]",agonistic activity

# Same assay, conditions: read-out: hCB2 cAMP EC50
row,Structure (SMILES),EC50
1,CCCCc1ccc(NC(=O)N2CCCN(C(=O)CC3CCCC3)CC2)cc1 [Example 11],0.074 µM
2,"O=C(CC1CCCC1)N1CCCN(C(=O)Nc2ccc(SC(F)(F)F)cc2)CC1 [Compound 82, 4-(2-cyclopentyl-acetyl)-[1,4]diazepane-1-carboxylic acid (4-trifluoromethylsulfanyl-phenyl)-amide]",0.036 µM
3,"CC(C)(C)c1ccc(NC(=O)N2CCCN(C(=O)CC3CCCCC3)CC2)cc1 [Compound 107, 4-(2-Cyclohexyl-acetyl)-[1,4]diazepane-1-carboxylic acid (4-tert-butyl-phenyl)-amide]",0.1 µM
4,"O=C(Nc1nc(-c2ccccc2)cs1)N1CCCN(C(=O)c2ccc(Cl)cc2)CC1 [Compound 167, 4-(4-Chloro-benzoyl)-[1,4]diazepane-1-carboxylic acid (4-phenyl-thiazol-2-yl)-amide]",0.026 µM
5,"CC(C)(C)c1ccc(NC(=O)N2CCCN(C(=O)c3ccc(Cl)c(Cl)c3)CC2)cc1 [Compound 110, 4-(3,4-Dichloro-benzoyl)-[1,4]diazepane-1-carboxylic acid (4-tert-butyl-phenyl)-amide]",0.064 µM
6,"O=C(Nc1ccc2ccccc2c1)N1CCCN(C(=O)c2ccc(Cl)c(Cl)c2)CC1 [Compound 86, 4-(3,4-Dichloro-benzoyl)-[1,4]diazepane-1-carboxylic acid naphthalen-2-ylamide]",0.052 µM
